According to patent US20200172913A1, “PEPTIDES AND NANOPARTICLES FOR INTRACELLULAR DELIVERY OF VIRUS” (priority 2017, published 2020):
Read-outs that look alike come from different tables or passages of the source. *1 amine or outer side, *2 acyl side, *3 side chain or, on linkers, in order; H or OH if unused. Where a SMILES comes first, the peptide text is derived from it. Where no end group is shown, it is not given here. Cysteamide = C(CS[*:3])N[*:1]

Tests used:
[1] = system: HUVEC cell lines; assay: Cytotoxicity of AAV-CPP complexes, XTT assay; format: cell-based; conditions: CPP concentration of 500 μM, AAV-6-βGal MOI of 300, XTT after 2 days
Experimental: The cytoxicity of the AAV-CPP complexes was evaluated on HUVEC cell lines. AAV encoding beta galactosidase (AAV-6-βGal) at MOI of 300 were preincubated in PBS with increasing concentration of CPPs ranging from 1 to 500 μM for 30 min. Cells were treated with either free AAV (No CPP) or CPP/AAV complexes for 4 h, then the medium was replaced with fresh medium. Cytotoxicity of AAV-CPP complexes was determined using the XTT assay after 2 days. […] A low cytotoxicity of 5% for PEP-1 and PEP-2 and 8% for Pant were obtained for a CPP concentration of 500 μM.

[2] = system: HepG2 cells; conditions: AAV-2, HepG2, Liu et al., cited from earlier work
[3] = system: HepG2 cells; assay: AAV-2 transfection of HepG2 cells with TAT-HA2 or LAH4 peptides (Liu et al., Molecular Therapy, 2014); format: cell-based, human; conditions: 200 μM, GFP-positive cells
[4] = molecular target: Adeno-associated virus AAV-2 encoding green fluorescent protein (adeno-associated virus serotype 2) (UniProt P03135); assay: cell-based or functional assay
[5] = system: HepG2 and HCN2 cells; assay: AAV-8-GFP transduction with CPPs, statements for both cell lines; format: cell-based, human; conditions: for impact on AAV-8 infectivity: 1 μM concentration, both cell lines; for share of the final improvement obtained at 200 μM: 10 μM concentration, AAV-8, both cell lines
Experimental: (§1) In this example different AAV serotypes including AAV 1, AAV2, AAV5, AAV6, AAV8 and AAV9 were tested against human hepatocytes (HepG2) and human neuronal cells (HCN2) in the presence or in the absence of CPPs including ADGN-103a, ADGN-103b, ADGN-100, ADGN-109, ADGN-106, PEP-1, PEP-2, CADY, and TAT-HA2.
(§2) AAV-1, AAV-2, AAV-5, and AAV-6 viruses encoding green fluorescent protein were obtained from Cell Biolabs Inc and AAV-8 from Vector Biolabs. Stock solutions of virus were obtained at 1χ10^13 GC/ml in PBS/0.01% and diluted 50-fold to 2×10^11 GC/ml before use.
(§3) AAV-1, AAV-2, AAV-5, and AAV6 encoding green fluorescent protein were used at low MOI of 500 (1-2×10^7 PFU) and AAV-8 at MOI of 1000 (2-4×10^7 PFU). HepG2 and HCN2 cells (1 10^6 cells per well) were cultured in a 24 well plate culture dish format. For MOI of 1000, 5 μl of AAV virus diluted solutions were preincubated in PBS with increasing concentration of CPPs ranging from 0.1 to 200 μM for 30 min. For MOI of 500, 2.5 μl of AAV virus diluted solutions were preincubated in PBS with increasing concentration of CPPs ranging from 0.1 to 200 μM for 30 min. 200 μl of AAV or CPP/AAV complex solutions were added to cultured cells (1×10^6 cells per well). Cells are treated with either free AAV or CPP/AAV complexes for 4 h. and then the medium is replaced with fresh medium.
(§4) Viral mediated transgene expression was monitored by flow cytomety 2 days post-infection in HepG2 and Human neuronal HCN2. The percentage of GFP expressing cells were detected by flow cytometry and the increase of AAV infectivity was calculated based on the number of GFP-positive cells. Results are reported in FIGS. 5A-5D, 6A-6D, 7A-7D, 8A-8D, and 9A-9D.

[6] = system: HepG2 cells; assay: AAV-1-GFP transduction with CPPs, flow cytometry; format: cell-based, human; conditions: 200 μM CPP; for cells expressing GFP: AAV-1 MOI of 500, HepG2, 5% in the absence of CPP
Experimental: as §1, §2, §3, §4

[7] = system: HCN2 cells; assay: AAV-1-GFP transduction with CPPs, flow cytometry; format: cell-based, human; conditions: 200 μM CPP; for cells expressing GFP: AAV-1 MOI of 500, HCN2, 5% in the absence of CPP
Experimental: as §1, §2, §3, §4

[8] = system: HepG2 cells; assay: AAV-5-GFP transduction with CPPs, flow cytometry; format: cell-based, human; conditions: 200 μM CPP, AAV-5 MOI of 500, HepG2; 5% in the absence of CPP
Experimental: as §1, §2, §3, §4

[9] = system: HCN2 cells; assay: AAV-5-GFP transduction with CPPs, flow cytometry; format: cell-based, human; conditions: 200 μM CPP, AAV-5 MOI of 500, HCN2; 5% in the absence of CPP
Experimental: as §1, §2, §3, §4

[10] = system: HepG2 cells; assay: AAV-8-GFP transduction with CPPs, flow cytometry; format: cell-based, human; conditions: 200 μM CPP, AAV-8 MOI of 1000, HepG2; 5% in the absence of CPP
Experimental: as §1, §2, §3, §4

[11] = system: HCN2 cells; assay: AAV-8-GFP transduction with CPPs, flow cytometry; format: cell-based, human; conditions: 200 μM CPP, AAV-8 MOI of 1000, HCN2; 5% in the absence of CPP
Experimental: as §1, §2, §3, §4

[12] = system: HepG2 cells; assay: AAV-2-GFP transduction with CPPs, flow cytometry; format: cell-based, human; conditions: 200 μM CPP, AAV-2 MOI of 500, HepG2; 4% in the absence of CPP
Experimental: as §1, §2, §3, §4

[13] = system: HCN2 cells; assay: AAV-2-GFP transduction with CPPs, flow cytometry; format: cell-based, human; conditions: 200 μM CPP, AAV-2 MOI of 500, HCN2; 4% in the absence of CPP
Experimental: as §1, §2, §3, §4

[14] = system: HepG2 and HCN2 cells; assay: AAV-2-GFP transduction with CPPs, statements for both cell lines; format: cell-based, human; conditions: for impact on AAV-2 infectivity: 1 μM concentration, both cell lines; for share of the final improvement obtained with 200 μM: 10 μM concentration of CPP, AAV-2, both cell lines
Experimental: as §1, §2, §3, §4

[15] = system: HepG2 cells; assay: AAV-6-GFP transduction with CPPs, flow cytometry; format: cell-based, human; conditions: 200 μM CPP; for cells expressing GFP: AAV-6 MOI of 500, HepG2, 5% in the absence of CPP
Experimental: as §1, §2, §3, §4

[16] = system: HCN2 cells; assay: AAV-6-GFP transduction with CPPs, flow cytometry; format: cell-based, human; conditions: for cells expressing GFP: 200 μM of CPP, AAV-6 MOI of 500, HCN2, 4% in the absence of CPP
Experimental: as §1, §2, §3, §4

[17] = system: HepG2 and HCN2 cells; assay: AAV-1-GFP transduction with CPPs, statements for both cell lines; format: cell-based, human; conditions: for impact on AAV-1 infectivity: 1 μM concentration, both cell lines; for share of the final improvement obtained with 200 μM: 10 μM concentration of CPP, AAV-1, both cell lines
Experimental: as §1, §2, §3, §4

[18] = system: HepG2 and HCN2 cells; assay: AAV-5-GFP transduction with CPPs, statements for both cell lines; format: cell-based, human; conditions: for impact on AAV-5 infectivity: 1 μM concentration, both cell lines; for share of the final improvement obtained at 200 μM: 10 μM concentration, AAV-5, both cell lines
Experimental: as §1, §2, §3, §4

[19] = system: HepG2 and HCN2 cells; assay: AAV-6-GFP transduction with CPPs, statements for both cell lines; format: cell-based, human; conditions: for impact on AAV-6 infectivity: 1 μM concentration, both cell lines; for share of the final improvement obtained at 200 μM: 10 μM concentration, AAV-6, both cell lines
Experimental: as §1, §2, §3, §4

[20] = molecular target: Adeno-associated virus AAV-2 encoding green fluorescent protein (adeno-associated virus serotype 2) (UniProt P03135); assay: cell-based or functional assay; remark: listed apart in the source

## CC(=O)N[C@@H](CCCCN)C(=O)N[C@@H](CCC(=O)O)C(=O)N[C@H](C(=O)N[C@@H](Cc1c[nH]c2ccccc12)C(=O)N[C@@H](Cc1c[nH]c2ccccc12)C(=O)N[C@@H](CCC(=O)O)C(=O)N[C@H](C(=O)N[C@@H](Cc1c[nH]c2ccccc12)C(=O)N[C@@H](Cc1c[nH]c2ccccc12)C(=O)N[C@H](C(=O)N[C@@H](CCC(=O)O)C(=O)N[C@@H](Cc1c[nH]c2ccccc12)C(=O)N[C@@H](CO)C(=O)N[C@@H](CCC(N)=O)C(=O)N1CCC[C@H]1C(=O)N[C@@H](CCCCN)C(=O)N[C@@H](CCCCN)C(=O)N[C@@H](CCCCN)C(=O)N[C@@H](CCCNC(=N)N)C(=O)N[C@@H](CCCCN)C(=O)N[C@H](C(=O)NCCS)C(C)C)[C@@H](C)O)[C@@H](C)O)[C@@H](C)O [PEP-1] (Ac-KETWWETWWTEWSQPKKKRKV-Cysteamide)
[1]
  cytotoxicity: 5%

## CC(=O)N[C@@H](CCCCN)C(=O)N[C@@H](CCC(=O)O)C(=O)N[C@H](C(=O)N[C@@H](Cc1c[nH]c2ccccc12)C(=O)N[C@@H](Cc1ccccc1)C(=O)N[C@@H](CCC(=O)O)C(=O)N[C@H](C(=O)N[C@@H](Cc1c[nH]c2ccccc12)C(=O)N[C@@H](Cc1ccccc1)C(=O)N[C@H](C(=O)N[C@@H](CCC(=O)O)C(=O)N[C@@H](Cc1c[nH]c2ccccc12)C(=O)N[C@@H](CO)C(=O)N[C@@H](CCC(N)=O)C(=O)N1CCC[C@H]1C(=O)N[C@@H](CCCCN)C(=O)N[C@@H](CCCCN)C(=O)N[C@@H](CCCCN)C(=O)N[C@@H](CCCNC(=N)N)C(=O)N[C@@H](CCCCN)C(=O)N[C@H](C(=O)NCCS)C(C)C)[C@@H](C)O)[C@@H](C)O)[C@@H](C)O [PEP-2] (Ac-KETWFETWFTEWSQPKKKRKV-Cysteamide)
[1]
  cytotoxicity: 5%

## KKALLALALHHLAHLALHLALALKKAC [LAH4, a leucine- and histidine-rich peptide]
[2]; 200 μM concentration of peptide
  GFP-positive cells: ~45%
[2]; concentration of CPPs
  GFP-positive cells: 12%
[3]
  fold lower than the results obtained with the ADGN peptides: 2 fold

## PEP-1-DOPA (peptide)
[4]
  efficacy (GFP expressing 293 T cells) after incubation of the complexes in 50% serum: 30 % reduction

## PEP-1-PEG (peptide)
[4]
  efficacy (GFP expressing 293 T cells) after incubation of the complexes in 50% serum: 30 % reduction

## βAKWWERWWREWPRKRR (not fully specified (residue 1, N-terminus); printed as βAKWWERWWREWPRKRR) [ADGN-103b]
[5]
  impact on AAV-8 infectivity: significant impact
  share of the final improvement obtained at 200 μM: about 60%
[6]
  cells expressing GFP: 81%
[7]
  cells expressing GFP: 78%
[8]
  cells expressing GFP: 64%
[9]
  cells expressing GFP: 48%
[10]
  cells expressing GFP: 60%
[11]
  cells expressing GFP: 58%
[12]
  cells expressing GFP: 96%
[13]
  cells expressing GFP: 81%
[14]
  impact on AAV-2 infectivity: significant impact
  share of the final improvement obtained with 200 μM: about 70%
[15]
  cells expressing GFP: 98%
[15]; MOI of 500, HepG2
  increase of AAV-6 efficiency: 30 fold
[16]; 200 μM CPP, MOI of 500, HCN2
  increase of AAV-6 efficiency: 22 fold
[16]
  cells expressing GFP: 67%
[17]
  impact on AAV-1 infectivity: significant impact
  share of the final improvement obtained with 200 μM: about 60%
[18]
  impact on AAV-5 infectivity: significant impact
  share of the final improvement obtained at 200 μM: about 50%
[19]
  impact on AAV-6 infectivity: significant impact
  share of the final improvement obtained at 200 μM: about 70%

## βALRWWLRWASRWFSRWAWWR (not fully specified (residue 1, N-terminus); printed as βALRWWLRWASRWFSRWAWWR) [ADGN-109]
[5]
  impact on AAV-8 infectivity: significant impact
  share of the final improvement obtained at 200 μM: about 60%
[6]
  cells expressing GFP: 61%
[6]; MOI of 500, HepG2
  increase of AAV-1 efficiency: 16 fold
[7]
  cells expressing GFP: 62%
[7]; MOI of 500, HCN2
  increase of AAV-1 efficiency: 15 fold
[8]
  cells expressing GFP: 51%
[9]
  cells expressing GFP: 37%
[10]
  cells expressing GFP: 45%
[11]
  cells expressing GFP: 44%
[12]
  cells expressing GFP: 90%
[13]
  cells expressing GFP: 58%
[14]
  impact on AAV-2 infectivity: significant impact
  share of the final improvement obtained with 200 μM: about 70%
[15]
  cells expressing GFP: 82%
[16]
  cells expressing GFP: 62%
[17]
  impact on AAV-1 infectivity: significant impact
  share of the final improvement obtained with 200 μM: about 60%
[18]
  impact on AAV-5 infectivity: significant impact
  share of the final improvement obtained at 200 μM: about 50%
[19]
  impact on AAV-6 infectivity: significant impact
  share of the final improvement obtained at 200 μM: about 70%

## KETWWETWWTEWSQPKKKRKV (not fully specified (N-terminus, C-terminus)) [PEP-1 (N-acetylated, C-terminal cysteamide; Example 5)]
[20]
  level of GFP expressing cells (293 T cells, flow cytometry) after 1 h incubation of the complexes in 20% serum: 60 % reduction
  level of GFP expressing cells (293 T cells, flow cytometry) after 1 h incubation of the complexes in 50% serum: 80 % reduction
